# Marks after values point to notes of the source that are not given here.
# How the values were obtained:
# [1] = system: hematopoietic progenitor cells (HPCs); test: Hematopoietic progenitor cells (Sca-1+/c-Kit+) in blood by FACS analysis; format: in vivo, Swiss-Webster mice; conditions: mice, oral gavage, blood 6 h after final dosing
# Procedure: (§1) To examine the effect of compounds and methods of the present invention on hematopoietic progenitor cell (HPC) and neutrophil levels, the following studies were performed. Male Swiss-Webster mice were administered various compounds of the present invention via oral gavage using a ball-tipped gavage needle. Animals treated by oral gavage received a 10 ml/kg volume of either 0.5% carboxymethyl cellulose (CMC) with 0.1% Polysorbate 80 (vehicle control) or various doses (10-100 mg/kg) of a compound of the present invention in 0.5% CMC with 0.1% Polysorbate 80. Animals were dosed once daily for 3 or 4 days.
# (§2) Six hours after the final dosing, 200 μl blood samples were collected for detection of hematopoietic progenitor cells (HPCs) and neutrophils by FACS analysis using methods previously described. (See, e.g., Wang et al. (1997) J Leukoc Biol 62 503-9 and Legasse et al. (1996) J Immunol Methods 197:139-50.) Briefly, leukocytes and progenitor cells were isolated from whole blood samples following erythrocyte depletion using red blood cell lysis buffer (eBioscience) according to the manufacturer's instructions. The remaining cells were incubated for one hour with monoclonal antibodies directed against mouse Sca-1 and mouse c-Kit (cell surface markers for HPCs, BD Pharmingen), or mouse Mac-1 and mouse Gr-1 (cell surface markers for murine neutrophils, BD Pharmingen). Following incubation with the monoclonal antibodies, the cells were washed three times with sort buffer (PBS, 1% fetal bovine serum) and resuspended in sort buffer containing 50 μg/ml of propidium iodide. Samples were then analyzed for the presence and quantitation of HPCs and neutrophils by flow cytometry (FACS Calibur, Becton Dickinson). The cytometer was set to acquire 10 000 events. Two or three blood samples obtained from each animal were analyzed and the average recorded. Hematopoietic progenitor cells were determined as double positive Sca-1+/c-Kit+ cells and neutrophils were determined as double positive Mac-1+/Gr-1+ cells.
# [2] = system: neutrophils; test: Neutrophils (Mac-1+/Gr-1+) in blood by FACS analysis; format: in vivo, Swiss-Webster mice; conditions: mice, oral gavage, blood 6 h after final dosing
# Procedure: as §1, §2
# [3] = system: hematopoietic progenitor cells (HPCs) in bone marrow; test: Hematopoietic progenitor cells in bone marrow by FACS analysis; format: in vivo, Swiss-Webster mice; conditions: mice, oral gavage, tibia bone marrow 6 h after final dosing
# Procedure: as §2
# (§3) To examine the effect of compounds and methods of the present invention on hematopoietic progenitor cell (HPC) and neutrophil levels in bone marrow, the following studies were performed. Male Swiss-Webster mice were administered various compounds of the present invention via oral gavage using a ball-tipped gavage needle. Animals treated by oral gavage received a 10 ml/kg volume of either 0.5% carboxymethyl cellulose (CMC) with 0.1% Polysorbate 80 (vehicle control) or various doses (10-100 mg/kg) of a compound of the present invention in 0.5% CMC with 0.1% Polysorbate 80. Animals were dosed once daily for 3 or 4 days. Six hours after the final dosing, bone marrow samples were taken from one tibia of each animal and suspended in buffer (PBS with 1% fetal bovine serum). Bone marrow suspensions were then filtered through nylon filters to remove stromal cells. Following filtration, the remaining cells were counted manually using a hemocytometer. Detection and quantitation of HPCs and neutrophils were performed by FACS analysis as described above in Example 1.
# [4] = system: neutrophils in bone marrow; test: Neutrophils in bone marrow by FACS analysis; format: in vivo, Swiss-Webster mice; conditions: mice, oral gavage, tibia bone marrow 6 h after final dosing
# Procedure: as §2, §3
# [5] = system: total white blood cell (WBC); test: Total white blood cells by complete blood count, once daily dosing 3 or 4 days; format: in vivo, Swiss-Webster mice; conditions: mice, oral gavage, blood 6 h after final dosing
# Procedure: as §1, with “increasing white blood cells,” for “hematopoietic progenitor cell (HPC) and neutrophil levels,”, “In one series of experiments, male” for “Male”, “days. Six hours after the final dosing, 200 μl blood samples were collected and total white blood cell, neutrophil, and lymphocyte levels were measured by complete blood count (CBC) using a CellDyn cell analyzer (Abbott Laboratories).” for “days.”
# [6] = system: neutrophils; test: Neutrophils by complete blood count, once daily dosing 3 or 4 days; format: in vivo, Swiss-Webster mice; conditions: mice, oral gavage, blood 6 h after final dosing, CBC
# Procedure: as §1, with “increasing white blood cells,” for “hematopoietic progenitor cell (HPC) and neutrophil levels,”, “In one series of experiments, male” for “Male”, “days. Six hours after the final dosing, 200 μl blood samples were collected and total white blood cell, neutrophil, and lymphocyte levels were measured by complete blood count (CBC) using a CellDyn cell analyzer (Abbott Laboratories).” for “days.”
# [7] = system: lymphocytes; test: Lymphocytes by complete blood count, once daily dosing 3 or 4 days; format: in vivo, Swiss-Webster mice; conditions: mice, oral gavage, blood 6 h after final dosing, CBC
# Procedure: as §1, with “increasing white blood cells,” for “hematopoietic progenitor cell (HPC) and neutrophil levels,”, “In one series of experiments, male” for “Male”, “days. Six hours after the final dosing, 200 μl blood samples were collected and total white blood cell, neutrophil, and lymphocyte levels were measured by complete blood count (CBC) using a CellDyn cell analyzer (Abbott Laboratories).” for “days.”
# [8] = system: total white blood cell (WBC); test: Chemotherapy (cisplatin)-induced leukopenia, total WBC by CBC; format: in vivo, Sprague Dawley rats; conditions: rats; for total white blood cell levels in the cisplatin-treated animals (in words): Compound S 60 mg/kg or Compound B 40 mg/kg oral gavage day 0, 2, 4; for Total WBC / Total WBC % Change from Control: blood day 4; for Total WBC % Change from Control: vs healthy control
# Procedure: (§4) To examine the effect of compounds and methods of the present invention on increasing white blood cells, the following studies were performed. In one series of experiments, male Swiss-Webster mice were administered various compounds of the present invention via oral gavage using a ball-tipped gavage needle. Animals treated by oral gavage received a 10 ml/kg volume of either 0.5% carboxymethyl cellulose (CMC) with 0.1% Polysorbate 80 (vehicle control) or various doses (10-100 mg/kg) of a compound of the present invention in 0.5% CMC with 0.1% Polysorbate 80. Animals were dosed once daily for 3 or 4 days. […] The following study was performed to examine the effect of compounds and methods of the present invention on treatment of chemotherapy-induced leukopenia. Thirty-eight Sprague Dawley male rats (280-300 g) were obtained from Charles River Laboratories. Six rats served as healthy controls. On day 0, the remaining thirty-two rats were treated by intravenous injection (i.v.) with a single dose of cisplatin (CP) (Bedford Laboratories, Bedford Ohio) at 5 mg/kg and by oral gavage with one of the following: Compound S at 60 mg/kg; Compound B at 40 mg/kg; or vehicle 2 ml/kg. Compound was administered on day 0, day 2, and day 4 with the first dose given two hours before the CP injection. Blood samples (0.2 ml) were collected on day 4 as follows. Animals were anesthetized with isoflurane and 0.2 ml of blood was collected from the tail vein into a MICROTAINER EDTA-2K tube (Becton-Dickinson). Blood samples were processed to measure total white blood cell, neutrophil, and lymphocyte levels by CBC analysis as described above in Example 3.
# [9] = system: neutrophils; test: Chemotherapy (cisplatin)-induced leukopenia, neutrophils by CBC; format: in vivo, Sprague Dawley rats; conditions: rats, blood day 4; for Neutrophils % Change from Control: vs healthy control
# Procedure: as §4
# [10] = system: lymphocytes; test: Chemotherapy (cisplatin)-induced leukopenia, lymphocytes by CBC; format: in vivo, Sprague Dawley rats; conditions: rats, blood day 4; for Lymphocytes % Change from Control: vs healthy control
# Procedure: as §4
# [11] = 100 mg/kg once daily for 4 days
# [12] = cisplatin 5 mg/kg i.v. day 0, compound 40 mg/kg oral gavage day 0, day 2, day 4
# [13] = cisplatin 5 mg/kg i.v. day 0, compound 60 mg/kg oral gavage day 0, day 2, day 4
# [14] = cisplatin 5 mg/kg i.v. single dose day 0 plus vehicle by oral gavage
smiles,measurement,setting,value
"Cc1nc(C(=O)NCC(=O)O)c(O)c2ccc(Oc3ccccc3)cc12 [Compound B, [(4-Hydroxy-1-methyl-7-phenoxy-isoquinoline-3-carbonyl)-amino]-acetic acid]",Blood HPCs,[1]; 60 mg/kg once daily for 3 days,67 cells/μl
same,Blood HPCs Fold Increase Over Control,[1]; 60 mg/kg once daily for 3 days,1.5 fold
same,Percent Blood HPCs,[1]; 60 mg/kg once daily for 3 days,0.7 % gated cells
same,Percent Blood HPCs Fold Increase Over Control,[1]; 60 mg/kg once daily for 3 days,1.1 fold
same,Blood HPCs,[1]; [11],126 cells/μl
same,Blood HPCs Fold Increase Over Control,[1]; [11],7.4 fold
same,Percent Blood HPCs,[1]; [11],1.2 % gated cells
same,Percent Blood HPCs Fold Increase Over Control,[1]; [11],3.8 fold
same,Blood Neutrophils,[2]; 60 mg/kg once daily for 3 days,126 cells/μl
same,Blood Neutrophils Fold Increase Over Control,[2]; 60 mg/kg once daily for 3 days,1.3 fold
same,Percent Blood Neutrophils,[2]; 60 mg/kg once daily for 3 days,1.2 % gated cells
same,Percent Blood Neutrophils Fold Increase Over Control,[2]; 60 mg/kg once daily for 3 days,0.9 fold
same,Blood Neutrophils,[2]; [11],936 cells/μl
same,Blood Neutrophils Fold Increase Over Control,[2]; [11],5.3 fold
same,Percent Blood Neutrophils,[2]; [11],9.1 % gated cells
same,Percent Blood Neutrophils Fold Increase Over Control,[2]; [11],2.7 fold
same,Percent Bone Marrow HPCs,[3]; 60 mg/kg once daily for 3 days,6.3 % gated cells
same,Percent Bone Marrow HPCs Fold Increase Over Control,[3]; 60 mg/kg once daily for 3 days,1.7 fold
same,Percent Bone Marrow HPCs,[3]; [11],7.0 % gated cells
same,Percent Bone Marrow HPCs Fold Increase Over Control,[3]; [11],1.6 fold
same,Percent Bone Marrow Neutrophils,[4]; 60 mg/kg once daily for 3 days,34.7 % gated cells
same,Percent Bone Marrow Neutrophils Fold Increase Over Control,[4]; 60 mg/kg once daily for 3 days,1.1 fold
same,Percent Bone Marrow Neutrophils,[4]; [11],33.6 % gated cells
same,Percent Bone Marrow Neutrophils Fold Increase Over Control,[4]; [11],1.3 fold
same,Total WBC,[5]; 60 mg/kg once daily for 3 days,8.80 10^3 cells/μl
same,Total WBC % Increase Over Control,[5]; 60 mg/kg once daily for 3 days,82%
same,Total WBC,[5]; [11],10.24 10^3 cells/μl
same,Total WBC % Increase Over Control,[5]; [11],94%
same,Neutrophils,[6]; 60 mg/kg once daily for 3 days,1.28 10^3 cells/μl
same,Neutrophils % Increase Over Control,[6]; 60 mg/kg once daily for 3 days,110%
same,Neutrophils,[6]; [11],0.96 10^3 cells/μl
same,Neutrophils % Increase Over Control,[6]; [11],66%
same,Lymphocytes,[7]; 60 mg/kg once daily for 3 days,7.40 10^3 cells/μl
same,Lymphocytes % Increase Over Control,[7]; 60 mg/kg once daily for 3 days,82%
same,Lymphocytes,[7]; [11],9.18 10^3 cells/μl
same,Lymphocytes % Increase Over Control,[7]; [11],101%
same,total white blood cell levels in the cisplatin-treated animals (in words),"[8]; 5 mg/kg cisplatin, day 4",increased total white blood cell levels
same,Total WBC,[8]; [12],16.8 10^3 cells/μl
same,Total WBC % Change from Control,"[8]; cisplatin 5 mg/kg i.v. day 0, compound 40 mg/kg oral gavage day 0, day 2, day 4, reduction not statistically significant",−1* %
same,Neutrophils,[9]; [12],2.2 10^3 cells/μl
same,Neutrophils % Change from Control,[9]; [12],7%
same,Lymphocytes,[10]; [12],14.7 10^3 cells/μl
same,Lymphocytes % Change from Control,[10]; [12],9%
"O=C(O)CNC(=O)c1nc(Cl)c2ccccc2c1O [Compound S, [(1-Chloro-4-hydroxy-isoquinoline-3-carbonyl)-amino]-acetic acid]",total white blood cell levels in the cisplatin-treated animals (in words),"[8]; 5 mg/kg cisplatin, day 4",increased total white blood cell levels
same,Total WBC,[8]; [13],20.2 10^3 cells/μl
same,Total WBC % Change from Control,[8]; [13],19%
same,Neutrophils,[9]; [13],2.2 10^3 cells/μl
same,Neutrophils % Change from Control,[9]; [13],7%
same,Lymphocytes,[10]; [13],16.2 10^3 cells/μl
same,Lymphocytes % Change from Control,[10]; [13],21%
"N.N.[Cl][Pt][Cl] [cisplatin, reference compound]",reduction of total white blood cell levels compared to non-treated control animals,"[8]; 5 mg/kg cisplatin, day 4",21%
same,Total WBC,[8]; [14],13.3 10^3 cells/μl
same,Total WBC % Change from Control,[8]; [14],−21%
same,Neutrophils,[9]; [14],1.6 10^3 cells/μl
same,Neutrophils % Change from Control,[9]; [14],−22%
same,Lymphocytes,[10]; [14],10.1 10^3 cells/μl
same,Lymphocytes % Change from Control,[10]; [14],−24%

# — patent publication US20110039879A1, “METHODS FOR INCREASING WHITE BLOOD CELLS” (FibroGen ,Inc., priority 2007, published 2011)
